US11845724B2, “USP30 inhibitors and uses thereof” (Vincere Biosciences, Inc., priority 2019, dated 2023)

The molecules below were run against USP30 (Homo sapiens (Human), UniProt Q70CQ3) (assay: Dundee MALDI-TOF mass spectrometry assay (IC50)). Conditions: USP30 25 ng/μl, K48-linked diubiquitin 5.6 μM, avg, read-out: Dundee IC50 μM (avg in vitro MS assay).
Type: biochemical
Experimental: Compounds were tested in a MALDI-TOF assay based on the paper by Ritorto et al. (Ritorto et al. Screening of DUB activity and specificity by MALDI-TOF mass spectrometry. Nat. […] USP30 (25 ng/μl) tested against K48-linked diubiquitin (5.6 μM). USP30 was diluted in a buffer containing 40 mM Tris, 0.01% BSA, 1 mM DTT and K48 in 40 mM Tris, 0.01% BSA. The compounds were pre-incubated with the USP30 for 5 mins at room temp before the K48 dimer addition. The assay mixture was then incubated for 45 mins at room temp. The assay was stopped by the addition of TFA to a final concentration of 2% (v/v). […] Then 250 nl of these solutions were spotted onto an MTP AnchorChip 1,536 TF and this is analysed on the Bruker rapifleX MALDI-TOF.

USP30, sequence (Q70CQ3 whole entry): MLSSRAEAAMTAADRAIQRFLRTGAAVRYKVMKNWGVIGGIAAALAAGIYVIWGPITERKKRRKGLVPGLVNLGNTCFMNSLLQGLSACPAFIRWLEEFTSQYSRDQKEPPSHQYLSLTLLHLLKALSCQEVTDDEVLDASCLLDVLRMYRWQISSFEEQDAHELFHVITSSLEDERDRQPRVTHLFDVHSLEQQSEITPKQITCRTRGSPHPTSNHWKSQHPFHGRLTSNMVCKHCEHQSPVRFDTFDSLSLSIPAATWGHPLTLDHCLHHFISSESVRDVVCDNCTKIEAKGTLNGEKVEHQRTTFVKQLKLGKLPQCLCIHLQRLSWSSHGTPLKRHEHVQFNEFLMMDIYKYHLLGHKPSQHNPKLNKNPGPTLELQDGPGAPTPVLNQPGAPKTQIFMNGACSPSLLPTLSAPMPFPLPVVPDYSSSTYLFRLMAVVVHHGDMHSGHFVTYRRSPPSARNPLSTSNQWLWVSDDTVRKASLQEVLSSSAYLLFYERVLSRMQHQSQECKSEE

Row | IC50 [µM] | Structure (SMILES)
1 | < 0.05 | CC(C)(C)NS(=O)(=O)c1ccc(NC(=O)[C@H](Cc2ccccc2)NC(=O)c2ccc(F)cc2)nc1 [Compound I-61, (S)-N-(1-(5-(N-tert-butylsulfamoyl)pyridin-2-ylamino)-1-oxo-3-phenylpropan-2-yl)-4-fluorobenzamide]
2 | 1 to 10 | CN(C(=O)c1ccc(F)cc1)[C@@H](Cc1cccnc1)C(=O)Nc1ccc(S(=O)(=O)NC23CC(C2)C3)cc1 [Compound I-92, (S)-N-(1-(4-(N-bicyclo[1.1.1]pentan-1-ylsulfamoyl)phenylamino)-1-oxo-3-(pyridin-3-yl)propan-2-yl)-4-fluoro-N-methylbenzamide]
3 | < 0.05 | COc1cc(NC(=O)[C@H](Cc2ccccc2)NC(=O)c2ccc(F)cc2)ccc1S(=O)(=O)NC12CC(C1)C2 [Compound I-148, (S)-N-(1-(4-(N-bicyclo[1.1.1]pentan-1-ylsulfamoyl)-3-methoxyphenylamino)-1-oxo-3-phenylpropan-2-yl)-4-fluorobenzamide]
4 | < 0.05 | C[C@@H](NS(=O)(=O)c1ccc(NC(=O)[C@H](Cc2ccccc2)NC(=O)c2ccc(F)cc2)cc1)C1CC1 [Compound I-67, N-((S)-1-(4-(N-((R)-1-cyclopropylethyl)sulfamoyl)phenylamino)-1-oxo-3-phenylpropan-2-yl)-4-fluorobenzamide]
5 | 1 to 10 | CN(C(=O)c1ccc(F)cc1)[C@@H](Cc1ccccc1)C(=O)Nc1ccc(S(=O)(=O)NC23CC(C2)C3)cc1 [Compound I-72, (S)-N-(1-(4-(N-bicyclo[1.1.1]pentan-1-ylsulfamoyl)phenylamino)-1-oxo-3-phenylpropan-2-yl)-4-fluoro-N-methylbenzamide]
6 | 0.05 to 1 | CC(C)(C)NS(=O)(=O)c1ccc(NC(=O)[C@H](Cc2ccccc2)NC(=O)c2ccc(F)cc2)s1 [Compound I-63, (S)-N-(1-(5-(N-tert-butylsulfamoyl)thiophen-2-ylamino)-1-oxo-3-phenylpropan-2-yl)-4-fluorobenzamide]
7 | 1 to 10 | CC(C)(C)NS(=O)(=O)c1ccc(NC(=O)[C@H](Cc2ccccc2)N2Cc3ccccc3C2=O)cc1 [Compound I-69, (S)-N-(4-(N-tert-butylsulfamoyl)phenyl)-2-(1-oxoisoindolin-2-yl)-3-phenylpropanamide]
8 | < 0.05 | CC(C)(C)NS(=O)(=O)c1ccc(NC(=O)[C@H](Cc2ccccc2)NC(=O)c2ccc(F)cc2)cn1 [Compound I-62, (S)-N-(1-(6-(N-tert-butylsulfamoyl)pyridin-3-ylamino)-1-oxo-3-phenylpropan-2-yl)-4-fluorobenzamide]

Second part, the molecule before the results:

Row | Structure (SMILES) | IC50 [µM]
9 | O=C(N[C@@H](Cc1ccccc1)C(=O)Nc1ccc(S(=O)(=O)NC2CCCCC2)cc1)c1ccc(F)cc1 [Compound I-31, (S)-N-(1-(4-(N-cyclohexylsulfamoyl)phenylamino)-1-oxo-3-phenylpropan-2-yl)-4-fluorobenzamide] | 0.05 to 1
10 | O=C(N[C@@H](Cc1ccccc1)C(=O)Nc1ccc(S(=O)(=O)NCC2CC2)cc1)c1ccc(F)cc1 [Compound I-9, (S)-N-(1-(4-(N-(cyclopropylmethyl)sulfamoyl)phenylamino)-1-oxo-3-phenylpropan-2-yl)-4-fluorobenzamide] | < 0.05
11 | CC(C)(C)CS(=N)(=O)c1ccc(NC(=O)[C@H](Cc2ccccc2)NC(=O)c2ccc(F)cc2)cc1 (stereo partly drawn) [Compound I-3, N-((2S)-1-(4-(2,2-dimethylpropylsulfonimidoyl)phenylamino)-1-oxo-3-phenylpropan-2-yl)-4-fluorobenzamide] | > 10
12 | CC(C)(C)NS(=O)(=O)c1ccc(NC(=O)[C@H](Cc2c[nH]c3ccccc23)NC(=O)c2ccc(F)cc2)cc1 [Compound I-1, (S)-N-(1-(4-(N-tert-butylsulfamoyl)phenylamino)-3-(1H-indol-3-yl)-1-oxopropan-2-yl)-4-fluorobenzamide] | 0.05 to 1
13 | CCC(C)(C)NS(=O)(=O)c1ccc(NC(=O)[C@H](Cc2ccccc2)NC(=O)c2ccc(F)cc2)cc1 [Compound I-24, (S)-4-fluoro-N-(1-oxo-1-(4-(N-tert-pentylsulfamoyl)phenylamino)-3-phenylpropan-2-yl)benzamide] | < 0.05
14 | O=C(N[C@@H](Cc1ccccc1)C(=O)Nc1ccc(S(=O)(=O)NC2CC2)cc1)c1ccc(F)cc1 [Compound I-6, (S)-N-(1-(4-(N-cyclopropylsulfamoyl)phenylamino)-1-oxo-3-phenylpropan-2-yl)-4-fluorobenzamide] | < 0.05
15 | CC[C@@H](C)NS(=O)(=O)c1ccc(NC(=O)[C@H](Cc2ccccc2)NC(=O)c2ccc(F)cc2)cc1 [Compound I-12, N-((S)-1-((4-(N-((R)-sec-butyl)sulfamoyl)phenyl)amino)-1-oxo-3-phenylpropan-2-yl)-4-fluorobenzamide] | < 0.05
16 | CC(C)(C)NS(=O)(=O)c1ccc(NC(=O)C2Cc3ncccc3N2C(=O)c2ccc(F)cc2)cc1 (centres unmarked) [Compound I-54, N-(4-(N-tert-butylsulfamoyl)phenyl)-1-(4-fluorobenzoyl)-2,3-dihydro-1H-pyrrolo[3,2-b]pyridine-2-carboxamide] | > 1
17 | O=C(N[C@@H](Cc1ccccc1)C(=O)Nc1ccc(S(=O)(=O)Nc2ccccc2)cc1)c1ccc(F)cc1 [Compound I-32, (S)-4-fluoro-N-(1-oxo-3-phenyl-1-(4-(N-phenylsulfamoyl)phenylamino)propan-2-yl)benzamide] | 0.05 to 1
18 | O=C(N[C@@H](Cc1ccccc1)C(=O)Nc1ccc(S(=O)(=O)NC2CCCC2)cc1)c1ccc(F)cc1 [Compound I-8, (S)-N-(1-(4-(N-cyclopentylsulfamoyl)phenylamino)-1-oxo-3-phenylpropan-2-yl)-4-fluorobenzamide] | < 0.05
19 | CC(C)(C)CS(=O)(=O)c1ccc(NC(=O)[C@H](Cc2ccccc2)NC(=O)c2ccc(F)cc2)cc1 [Compound I-2, (S)-4-fluoro-N-(1-(4-(2,2-Dimethyl-propylsulfonyl)phenylamino)-1-oxo-3-phenylpropan-2-yl)benzamide] | 0.05 to 1
20 | O=C(N[C@@H](Cc1ccccc1)C(=O)Nc1ccc(S(=O)(=O)NC2CCC2)cc1)c1ccc(F)cc1 [Compound I-7, (S)-N-(1-(4-(N-cyclobutylsulfamoyl)phenylamino)-1-oxo-3-phenylpropan-2-yl)-4-fluorobenzamide] | < 0.05

The molecules below were run against recombinant USP30 (amino acids 57-517 of the human sequence) (Homo sapiens (Human), UniProt Q70CQ3) (assay: In vitro USP30 biochemical assay (Ubiquitin-Rhodamine)). Conditions: USP30 IC50 μM (avg), Ubiquitin-Rhodamine substrate 25 nM, 1.5 nM recombinant USP30.
recombinant USP30 (amino acids 57-517 of the human sequence), sequence (Q70CQ3 57-517): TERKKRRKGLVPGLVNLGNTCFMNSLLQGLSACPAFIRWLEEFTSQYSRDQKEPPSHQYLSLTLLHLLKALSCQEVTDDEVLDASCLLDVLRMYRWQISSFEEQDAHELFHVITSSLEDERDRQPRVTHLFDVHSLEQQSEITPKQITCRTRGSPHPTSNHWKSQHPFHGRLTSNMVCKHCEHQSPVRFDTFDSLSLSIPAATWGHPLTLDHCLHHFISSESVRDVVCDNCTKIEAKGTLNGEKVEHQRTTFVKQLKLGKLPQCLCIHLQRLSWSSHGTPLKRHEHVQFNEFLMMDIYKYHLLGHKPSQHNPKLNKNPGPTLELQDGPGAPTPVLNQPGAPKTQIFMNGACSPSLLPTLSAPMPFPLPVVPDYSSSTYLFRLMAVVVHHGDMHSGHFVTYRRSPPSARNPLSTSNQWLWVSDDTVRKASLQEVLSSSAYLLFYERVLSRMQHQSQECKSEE

Row | IC50 [µM] | Structure (SMILES)
21 | 1 to 10 | CN(C(=O)c1ccc(F)cc1)[C@@H](Cc1cccnc1)C(=O)Nc1ccc(S(=O)(=O)NC23CC(C2)C3)cc1 [Compound I-92, (S)-N-(1-(4-(N-bicyclo[1.1.1]pentan-1-ylsulfamoyl)phenylamino)-1-oxo-3-(pyridin-3-yl)propan-2-yl)-4-fluoro-N-methylbenzamide]
22 | 0.05 to 1 | COc1cc(NC(=O)[C@H](Cc2ccccc2)NC(=O)c2ccc(F)cc2)ccc1S(=O)(=O)NC12CC(C1)C2 [Compound I-148, (S)-N-(1-(4-(N-bicyclo[1.1.1]pentan-1-ylsulfamoyl)-3-methoxyphenylamino)-1-oxo-3-phenylpropan-2-yl)-4-fluorobenzamide]
23 | 1 to 10 | CN(C(=O)c1ccc(F)cc1)[C@@H](Cc1ccccc1)C(=O)Nc1ccc(S(=O)(=O)NC23CC(C2)C3)cc1 [Compound I-72, (S)-N-(1-(4-(N-bicyclo[1.1.1]pentan-1-ylsulfamoyl)phenylamino)-1-oxo-3-phenylpropan-2-yl)-4-fluoro-N-methylbenzamide]
24 | 0.05 to 1 | COc1cc(NC(=O)[C@H](Cc2ccccc2)NC(=O)c2ccc(F)cc2)ccc1S(=O)(=O)NC(C)(C)CN1CCOCC1 [Compound I-153, (S)-4-fluoro-N-(1-(3-methoxy-4-(N-(2-methyl-1-morpholinopropan-2-yl)sulfamoyl)phenylamino)-1-oxo-3-phenylpropan-2-yl)benzamide]
25 | 0.05 to 1 | CC(C)(C#N)NS(=O)(=O)c1ccc(NC(=O)[C@H](Cc2ccccc2)NC(=O)c2ccc(F)cc2)cc1 [Compound I-172, (S)-N-(1-(4-(N-(2-cyanopropan-2-yl)sulfamoyl)phenylamino)-1-oxo-3-phenylpropan-2-yl)-4-fluorobenzamide]
26 | 0.05 to 1 | O=C(N[C@@H](Cc1ccccc1)C(=O)Nc1ccc(S(=O)(=O)N[C@@H]2CCOC2)nc1)c1ccc(F)cc1 [Compound I-179, 4-fluoro-N-((S)-1-oxo-3-phenyl-1-(6-(N-((R)-tetrahydrofuran-3-yl)sulfamoyl)pyridin-3-ylamino)propan-2-yl)benzamide]
27 | 0.05 to 1 | COCCC(C)(C)NS(=O)(=O)c1ccc(NC(=O)[C@H](Cc2ccccc2)NC(=O)c2ccc(F)cc2)cc1Cl [Compound I-171, (S)-N-(1-(3-chloro-4-(N-(4-methoxy-2-methylbutan-2-yl)sulfamoyl)phenylamino)-1-oxo-3-phenylpropan-2-yl)-4-fluorobenzamide]
28 | 1 to 10 | COCC(C)(C)NS(=O)(=O)c1ccc(NC(=O)[C@H](Cc2ccccc2)N(C)C(=O)c2ccc(F)cc2)cc1OC [Compound I-159, (S)-4-fluoro-N-(1-(3-methoxy-4-(N-(1-methoxy-2-methylpropan-2-yl)sulfamoyl)phenylamino)-1-oxo-3-phenylpropan-2-yl)-N-methylbenzamide]
29 | 0.05 to 1 | N#Cc1cc(NC(=O)[C@H](Cc2ccccc2)NC(=O)c2ccc(F)cc2)ccc1S(=O)(=O)NC12CC(C1)C2 [Compound I-166, (S)-N-(1-(4-(N-bicyclo[1.1.1]pentan-1-ylsulfamoyl)-3-cyanophenylamino)-1-oxo-3-phenylpropan-2-yl)-4-fluorobenzamide]

Same assay, conditions: read-out: USP30 IC50 μM (avg), Ubiquitin-Rhodamine substrate 25 nM, 1.5 nM recombinant USP30

Row | IC50 [µM] | Structure (SMILES)
30 | > 10 | CC(C)(C)NS(=O)(=O)c1ccc(NC(=O)[C@H](Cc2ccccc2)NS(=O)(=O)c2ccc(F)cc2)cc1 [Compound I-165, (S)-N-(4-(N-tert-butylsulfamoyl)phenyl)-2-(4-fluorophenylsulfonamido)-3-phenylpropanamide]
31 | > 10 | CN(C)S(=O)(=O)c1cccc2c(NC(=O)[C@H](Cc3ccccc3)NC(=O)c3ccc(F)cc3)cccc12 [Compound I-128, (S)-N-(1-(5-(N,N-dimethylsulfamoyl)naphthalen-1-ylamino)-1-oxo-3-phenylpropan-2-yl)-4-fluorobenzamide]
32 | < 0.05 | COc1cc(NC(=O)[C@H](Cc2ccccc2)NC(=O)c2ccc(F)cc2)ccc1S(=O)(=O)N[C@H]1CCOC1 [Compound I-182, 4-fluoro-N-((S)-1-(3-methoxy-4-(N-((S)-tetrahydrofuran-3-yl)sulfamoyl)phenylamino)-1-oxo-3-phenylpropan-2-yl)benzamide]
